Measured values as given in patent US6710051B1, “Screening method” (Klaus Trier APS, priority 1997, dated 2004).
Marks after values point to notes of the source that are not given here.

Legend:
sclera [1] = assay: Content of collagen specific amino acids in rabbit sclera after long term treatment (HPLC); type: in vivo; design: Hydroxylysine Decr. compared to the control / Hydroxyproline Inc. compared to the control / Proline Inc. compared to the control: concentration or dose not given beside the values; conditions: for Hydroxylysine Decr. compared to the control / Hydroxyproline Inc. compared to the control / Proline Inc. compared to the control / Hydroxylysine content / Hydroxyproline content / Proline content: 3 months treatment; for Hydroxylysine content / Hydroxyproline content / Proline content: dried defatted weight
Text: (§1) Test animal: Charles River Deutschland Chinchilla Bastard female rabbits.
(§2) Number of animals: 6 test animals and 6 control animals
(§3) Age: approximately 8 weeks at the commencement of the test.
(§4) Weight: 1.4-1.9 kg at the commencement of the test.
(§5) Cages: The animals live in identical cages made of stainless steel (Scanbur), length 1 m, depth 0.52 m, height 0.5 m.
(§6) Amount of food: Increasing from 75 g per day at the commencement of the test up to 130 g after three months.
(§7) Experimental drinking water 1 contained theophyllin in a dose equivalent of 27 mg increasing to 63 mg (added as theophyllin and ethylendiamin in a dose of 33 to 77 mg) daily.
(§8) Experimental drinking water 2 contained fluoxetine (Fontex, Lilly) in a dose equivalent of 2 mg increasing to 5 mg daily.
(§9) Experimental diet 3 was added 7-methylxanthine 500 mg per kg Stanrab standard diet equivalent of a daily 7-methylxanthine dose of […] per day.
(§10) Experimental diet 4 was added theobromine (3,7-dimethylxanthine) 500 mg per kg Stanrab standard diet equivalent of a daily theobromine dose of […] per day.
(§11) Experimental diet 5 was added acetazolamide 500 mg per kg Stanrab standard diet equivalent of a daily acetazolamide dose of […] per day.
(§12) Collection of sample: Sclera biopsies are taken for analysis for proteoglycane content, distribution between the individual glycosaminoglycanes and the content of collagen specific amino acids. Four tests from each animal: Two samples from the front, 5×10 mm along limbus (without cornea), and two samples from the back, punch 10 mm corresponding to the center of the retina. Furthermore, tests are taken for electron microscopy (EM) from two animals in each group.
Samples for analysis for content of collagen specific amino acids are frozen down immediately. The amino acid content is determined by HPLC-chromatography.
The dried tissue with constant weight is minced into very fine particles with a pair of scissors, approximately 20 per piece of tissue. The small flakes from each original piece of tissue ate divided into two equally sized portions, one of which is employed for hydrolysis and the other one is kept for reference. The constant dry weight of each portion is known.
From each resolubilized hydrolysate 3 aliquots of each 8 microliters and 3 aliquots of 40 μl are taken and transferred to separate polypropylene tubes in which 20 microliters of a solution of internal standard substances citrulline and 2 aminobutyric acid were added where the further method takes place.
The taken aliquots from hydrolysate are dried in a vacuum exsiccator at 35° C. over night and subsequently submitted to derivatization with phenylisothiocyanate.
The resulting phenylisothiocarbamates are transferred to the HPLC instrument for separation and quantification. A new set of calibration curves is established, 1 curve for each of the 19 amino acids, prior to the analysis of the samples from one investigation.
The concentration range of standard samples exceed the ranges of amino acid concentrations in the unknowns. Hydroxyproline and proline are quantitated from the 8 microliter aliquots, and hydroxylysine is quantitated from the 40 microliter aliquots.

sclera [2] = assay: Content of proteoglycanes in rabbit sclera after long term treatment (alcian blue method); type: in vivo; design: Proteoglycanes Decrease compared to the control, anterior sclera / Proteoglycanes Increase compared to the control, anterior sclera / Proteoglycanes Increase compared to the control, posterior sclera / Effect on proteoglycan content of posterior sclera in % compared to control: concentration or dose not given beside the values; conditions: for Content of proteoglycanes, anterior sclera / Content of proteoglycanes, posterior sclera: wet weight; for content of proteoglycans in posterior sclera (in words): Example 4, versus control; for Effect on proteoglycan content of posterior sclera in % compared to control: rabbit, Examples 2 and 4
Procedure: as §1, §2, §3, §4
Lightness/Darkness cycle: 12/12 hours.
as §5
Food: Stanrab standard diet from Special Diet Services, P.O. Box 705, Witham Essex CM8 3AD, UK (further details, see Table A).
as §6, §7, §8
Experimental diet 2 was added 4.5 g L-cystine per kg Stanrab standard diet equivalent of a daily L-cystine dose of 338 mg increasing to 585 mg per day. With respect to the supplement of L-cystine, the normal intake per day of the standard diet is 218 mg increasing to 377 mg L-cystine.
as §9, §10, §11
Experimental diet 6 was added 4.5 g L-ornithine per kg Stanrab standard diet equivalent of a daily L-ornithine dose of 338 mg increasing to 585 mg per day.
as §12
Analyses: Samples for proteoglycane analysis are frozen down immediately. The samples are analyzed by Wieslab AB, IDEON, S-223 70 Lund, Sweden, by means of a method which has been described by Björnsson, S., Analytical Biochemistry 210, 282-291 (1993). The method comprises extraction by 20 microliters of 4 M guanidine-HCl, 50 Mm sodium acetate per mg wet weight over night by room temperatures. The extracts are centrifuged in order to remove debris. 20 microliters of supernatant are reduced 1/10 in extraction buffer and 20 microliters of reduced supernatant are mixed with 10 microliters of reagent 1 (see Björnsson, S., Analytical biochemistry 210, 282-291 (1993)) on a shaking table for 15 minutes. 200 microliters of reagent 2 are added and the tests are incubated for 60 minutes in order to precipitate the proteoglycanes. The proteoglycane/alcian blue precipitate is transferred to 96-wells MillBlotD apparatus and washed with 2×200 microliters of 40% DMSO, 0.05 M of MgCl2. The colour intensity of the wells are quantitated by microtech E3 scanner and Scan Analysis software (Biosoft, Cambridge, U.K.). Chrondroitine-6-sulphate (Sigma C4384) is used as the calibrator. All samples are analyzed in duplicate.
The results of longterm treatment with each of the 8 substances specified above are shown in Example 2 (treatment for 12 weeks) and Example 4 (treatment for 10 weeks).

skeletal RyR = biological target: T1, skeletal RyR (Oryctolagus cuniculus, UniProt P11716); conditions: cited from earlier work; for Effect on [3H ryanodine binding in % compared to control: values of Table 3 without AMP/AMPPCP, caffeine represented by 1,7-dimethylxanthine; for Bound [3H]ryanodine % of control / Bound [3H]ryanodine pmol/mg protein / Bound [3H]ryanodine, % of control, +1 mmol/l AMPPCP / Bound [3H]ryanodine, % of control, +3 mmol/l AMP: xanthine […]; for Bound [3H]ryanodine % of control / Bound [3H]ryanodine pmol/mg protein: 1 mmol/l AMPPCP; for Bound [3H]ryanodine % of control / Bound [3H]ryanodine, % of control, +1 mmol/l AMPPCP / Bound [3H]ryanodine, % of control, +3 mmol/l AMP: control (-xanthine) = 100; for Bound [3H]ryanodine pmol/mg protein: means±SD of 3-4 experiments
T1 construct: Structure-activity Relationship of Xanthines and Skeletal Muscle Ryanodine Receptor/Ca^2+ Release Channel; from tissue; host or cells: Skeletal muscle
T1 sequence (P11716 whole entry): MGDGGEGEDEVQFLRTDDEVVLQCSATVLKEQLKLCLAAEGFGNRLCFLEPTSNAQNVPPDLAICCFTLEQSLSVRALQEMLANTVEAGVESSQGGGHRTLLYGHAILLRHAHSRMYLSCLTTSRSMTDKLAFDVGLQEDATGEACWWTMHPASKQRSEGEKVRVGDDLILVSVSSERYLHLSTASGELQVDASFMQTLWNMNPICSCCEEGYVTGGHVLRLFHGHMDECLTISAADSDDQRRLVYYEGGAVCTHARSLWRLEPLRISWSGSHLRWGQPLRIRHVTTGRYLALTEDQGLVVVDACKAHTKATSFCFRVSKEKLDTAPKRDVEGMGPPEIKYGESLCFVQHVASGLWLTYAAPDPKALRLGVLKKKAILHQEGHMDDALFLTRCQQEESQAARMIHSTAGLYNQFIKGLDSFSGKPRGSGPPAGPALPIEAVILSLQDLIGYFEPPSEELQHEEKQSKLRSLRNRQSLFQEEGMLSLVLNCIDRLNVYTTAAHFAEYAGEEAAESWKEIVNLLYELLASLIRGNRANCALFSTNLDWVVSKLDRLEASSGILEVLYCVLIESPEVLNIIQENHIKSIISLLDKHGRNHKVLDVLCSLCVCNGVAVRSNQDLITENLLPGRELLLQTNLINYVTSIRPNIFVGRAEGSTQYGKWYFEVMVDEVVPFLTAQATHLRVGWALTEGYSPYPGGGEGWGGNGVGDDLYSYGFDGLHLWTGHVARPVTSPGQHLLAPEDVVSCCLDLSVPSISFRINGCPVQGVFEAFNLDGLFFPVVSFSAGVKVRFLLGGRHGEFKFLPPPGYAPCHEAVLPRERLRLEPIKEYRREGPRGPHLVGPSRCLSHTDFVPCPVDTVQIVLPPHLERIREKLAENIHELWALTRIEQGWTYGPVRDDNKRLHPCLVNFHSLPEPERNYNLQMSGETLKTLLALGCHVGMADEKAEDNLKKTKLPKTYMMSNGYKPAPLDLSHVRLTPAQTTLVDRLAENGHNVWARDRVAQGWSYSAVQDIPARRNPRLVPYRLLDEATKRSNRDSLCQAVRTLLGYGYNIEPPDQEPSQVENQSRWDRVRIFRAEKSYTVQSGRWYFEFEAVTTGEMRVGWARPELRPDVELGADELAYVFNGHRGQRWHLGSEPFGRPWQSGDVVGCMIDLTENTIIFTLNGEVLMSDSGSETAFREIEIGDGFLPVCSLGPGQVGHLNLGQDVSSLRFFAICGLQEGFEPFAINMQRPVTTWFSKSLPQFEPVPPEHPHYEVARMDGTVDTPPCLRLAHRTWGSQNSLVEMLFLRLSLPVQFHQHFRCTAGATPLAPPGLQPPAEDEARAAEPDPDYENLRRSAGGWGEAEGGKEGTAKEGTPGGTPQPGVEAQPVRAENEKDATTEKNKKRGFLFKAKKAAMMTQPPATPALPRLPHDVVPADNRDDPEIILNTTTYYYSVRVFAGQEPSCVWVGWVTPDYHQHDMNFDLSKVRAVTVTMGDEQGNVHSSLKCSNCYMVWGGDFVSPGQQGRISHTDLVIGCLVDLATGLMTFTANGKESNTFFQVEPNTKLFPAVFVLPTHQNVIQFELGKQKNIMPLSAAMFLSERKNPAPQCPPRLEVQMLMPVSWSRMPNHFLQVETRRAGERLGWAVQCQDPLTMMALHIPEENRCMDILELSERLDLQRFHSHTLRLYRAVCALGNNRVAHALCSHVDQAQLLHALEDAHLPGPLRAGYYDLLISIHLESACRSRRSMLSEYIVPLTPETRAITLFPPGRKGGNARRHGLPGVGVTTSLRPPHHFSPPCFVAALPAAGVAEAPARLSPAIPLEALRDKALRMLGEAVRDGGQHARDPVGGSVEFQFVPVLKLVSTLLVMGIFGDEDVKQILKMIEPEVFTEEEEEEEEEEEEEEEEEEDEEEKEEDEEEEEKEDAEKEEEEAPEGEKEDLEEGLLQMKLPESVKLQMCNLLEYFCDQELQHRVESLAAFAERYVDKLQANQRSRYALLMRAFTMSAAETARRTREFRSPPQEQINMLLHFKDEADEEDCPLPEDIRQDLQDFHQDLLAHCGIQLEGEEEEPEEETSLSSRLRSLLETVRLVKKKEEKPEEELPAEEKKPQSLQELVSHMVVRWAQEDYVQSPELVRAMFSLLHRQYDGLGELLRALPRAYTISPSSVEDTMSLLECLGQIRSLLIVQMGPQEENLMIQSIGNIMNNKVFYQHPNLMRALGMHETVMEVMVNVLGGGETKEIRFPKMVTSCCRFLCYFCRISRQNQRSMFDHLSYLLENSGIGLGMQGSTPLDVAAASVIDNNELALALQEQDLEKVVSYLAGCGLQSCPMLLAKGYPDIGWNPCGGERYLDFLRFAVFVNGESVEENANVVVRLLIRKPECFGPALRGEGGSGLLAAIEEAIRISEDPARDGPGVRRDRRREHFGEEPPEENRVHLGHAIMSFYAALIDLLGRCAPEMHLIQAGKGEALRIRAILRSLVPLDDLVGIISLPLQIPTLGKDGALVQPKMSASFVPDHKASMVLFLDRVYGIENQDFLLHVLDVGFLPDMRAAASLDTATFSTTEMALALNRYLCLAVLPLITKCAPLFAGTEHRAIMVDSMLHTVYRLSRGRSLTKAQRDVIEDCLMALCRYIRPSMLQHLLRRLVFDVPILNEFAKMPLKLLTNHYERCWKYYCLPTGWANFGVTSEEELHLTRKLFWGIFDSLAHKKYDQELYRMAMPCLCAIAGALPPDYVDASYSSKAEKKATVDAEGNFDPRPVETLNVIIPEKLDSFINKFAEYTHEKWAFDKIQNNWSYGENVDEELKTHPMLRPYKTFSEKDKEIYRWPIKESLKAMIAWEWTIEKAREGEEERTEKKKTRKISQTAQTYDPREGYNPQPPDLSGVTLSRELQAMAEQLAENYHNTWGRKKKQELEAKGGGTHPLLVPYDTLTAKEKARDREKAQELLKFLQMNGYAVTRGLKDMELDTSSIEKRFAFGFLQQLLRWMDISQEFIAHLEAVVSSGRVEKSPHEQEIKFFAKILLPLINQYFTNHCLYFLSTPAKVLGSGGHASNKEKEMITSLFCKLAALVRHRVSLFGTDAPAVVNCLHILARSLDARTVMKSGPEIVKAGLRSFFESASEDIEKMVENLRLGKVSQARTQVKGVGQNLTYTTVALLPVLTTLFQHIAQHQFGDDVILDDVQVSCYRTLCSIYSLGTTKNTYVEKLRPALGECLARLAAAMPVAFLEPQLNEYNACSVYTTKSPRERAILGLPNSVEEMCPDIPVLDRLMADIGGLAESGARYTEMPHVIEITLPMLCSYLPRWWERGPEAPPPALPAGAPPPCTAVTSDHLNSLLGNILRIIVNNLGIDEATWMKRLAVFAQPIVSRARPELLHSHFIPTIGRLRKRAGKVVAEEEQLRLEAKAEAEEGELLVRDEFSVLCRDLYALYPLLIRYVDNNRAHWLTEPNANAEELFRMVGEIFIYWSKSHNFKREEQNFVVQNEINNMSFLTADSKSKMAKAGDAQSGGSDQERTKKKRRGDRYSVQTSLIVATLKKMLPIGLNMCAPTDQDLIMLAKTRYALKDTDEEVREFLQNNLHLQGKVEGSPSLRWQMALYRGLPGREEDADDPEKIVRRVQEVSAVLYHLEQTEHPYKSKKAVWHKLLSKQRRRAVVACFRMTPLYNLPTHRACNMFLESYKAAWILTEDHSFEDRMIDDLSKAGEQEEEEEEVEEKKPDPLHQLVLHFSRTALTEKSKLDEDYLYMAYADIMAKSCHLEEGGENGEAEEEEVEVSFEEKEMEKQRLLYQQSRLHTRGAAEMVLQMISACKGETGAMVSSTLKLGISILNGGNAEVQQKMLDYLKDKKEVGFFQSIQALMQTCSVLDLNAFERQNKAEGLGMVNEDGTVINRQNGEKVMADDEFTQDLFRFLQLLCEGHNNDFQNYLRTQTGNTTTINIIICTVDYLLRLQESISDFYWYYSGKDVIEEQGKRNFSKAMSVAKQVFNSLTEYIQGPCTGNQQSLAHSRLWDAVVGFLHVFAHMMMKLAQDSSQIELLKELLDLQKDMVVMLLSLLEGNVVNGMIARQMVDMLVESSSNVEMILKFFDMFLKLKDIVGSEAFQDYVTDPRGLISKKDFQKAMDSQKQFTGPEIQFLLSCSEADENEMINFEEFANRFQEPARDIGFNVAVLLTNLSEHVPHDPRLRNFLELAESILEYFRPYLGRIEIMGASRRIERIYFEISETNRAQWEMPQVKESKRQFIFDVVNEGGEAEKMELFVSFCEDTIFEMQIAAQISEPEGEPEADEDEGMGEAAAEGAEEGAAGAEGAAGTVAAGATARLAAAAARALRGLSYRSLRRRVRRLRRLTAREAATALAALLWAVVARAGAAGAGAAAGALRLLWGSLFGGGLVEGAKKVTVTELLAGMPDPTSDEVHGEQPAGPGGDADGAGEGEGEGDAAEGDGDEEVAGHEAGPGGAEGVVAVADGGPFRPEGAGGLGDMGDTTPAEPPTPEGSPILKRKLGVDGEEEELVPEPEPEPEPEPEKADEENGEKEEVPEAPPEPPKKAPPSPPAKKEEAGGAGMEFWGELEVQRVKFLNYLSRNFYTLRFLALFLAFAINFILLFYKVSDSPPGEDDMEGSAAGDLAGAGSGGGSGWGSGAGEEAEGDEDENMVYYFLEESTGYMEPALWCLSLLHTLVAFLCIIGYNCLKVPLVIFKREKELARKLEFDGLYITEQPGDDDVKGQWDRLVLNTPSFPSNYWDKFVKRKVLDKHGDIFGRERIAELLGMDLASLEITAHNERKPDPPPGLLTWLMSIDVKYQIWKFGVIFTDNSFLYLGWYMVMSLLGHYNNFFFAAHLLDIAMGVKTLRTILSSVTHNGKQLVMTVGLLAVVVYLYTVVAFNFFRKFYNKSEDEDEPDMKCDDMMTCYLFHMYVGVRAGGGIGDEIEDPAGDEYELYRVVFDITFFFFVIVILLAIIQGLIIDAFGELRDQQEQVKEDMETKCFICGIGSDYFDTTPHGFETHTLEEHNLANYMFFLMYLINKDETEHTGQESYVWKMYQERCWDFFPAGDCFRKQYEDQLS

sclera [3] = assay: Content of collagen specific amino acids in rabbit sclera after long term treatment (HPLC); type: in vivo; conditions: dried defatted weight, 10 weeks treatment (Example 4)
[4] = posterior sclera, 10 weeks treatment (Example 4)

Compound | Hydroxylysine content (sclera [1]; anterior sclera) | Hydroxyproline content (sclera [1]; anterior sclera) | Proline content (sclera [1]; anterior sclera) | Hydroxyproline Inc. compared to the control (sclera [1]; posterior sclera) | Proline Inc. compared to the control (sclera [1]; posterior sclera) | Hydroxylysine content (sclera [1]; posterior sclera) | Hydroxyproline content (sclera [1]; posterior sclera) | Proline content (sclera [1]; posterior sclera) | Content of proteoglycanes, anterior sclera (sclera [2]; 3 months treatment) | Content of proteoglycanes, posterior sclera (sclera [2]; 3 months treatment) | Content of proteoglycanes, anterior sclera (sclera [2]; 10 weeks treatment (Example 4)) | Content of proteoglycanes, posterior sclera (sclera [2]; 10 weeks treatment (Example 4)) | Hydroxylysine content (sclera [3]; anterior sclera) | Hydroxyproline content (sclera [3]; anterior sclera) | Proline content (sclera [3]; anterior sclera) | Hydroxylysine content (sclera [3]; posterior sclera) | Hydroxyproline content (sclera [3]; posterior sclera) | Proline content (sclera [3]; posterior sclera) | also measured
Cn1c(=O)c2[nH]cnc2n(C)c1=O.Cn1c(=O)c2[nH]cnc2n(C)c1=O.NCCN [Teofylamin] | 28 +/− 10 nanomol/mg tissue | 653 +/− 39 nanomol/mg tissue | 958 +/− 23 nanomol/mg tissue | 18% | 11% | 28 +/− 15 nanomol/mg tissue | 643 +/− 74 nanomol/mg tissue | 902 +/− 53 nanomol/mg tissue | 2.4 +/− 0.5 μg PG/mg tissue | 2.7 +/− 0.3 μg PG/mg tissue |  |  |  |  |  |  |  |  | Hydroxylysine Decr. compared to the control (sclera [1]; anterior sclera): 32%; Hydroxyproline Inc. compared to the control (sclera [1]; anterior sclera): 8%; Proline Inc. compared to the control (sclera [1]; anterior sclera): 8%; Hydroxylysine Decr. compared to the control (sclera [1]; posterior sclera): 35%; Proteoglycanes Decrease compared to the control, anterior sclera (sclera [2]; 3 months treatment): 11%
N[C@@H](CSSC[C@H](N)C(=O)O)C(=O)O [L-cystine] | 45 +/− 10 nanomol/mg tissue | 599 +/− 41 nanomol/mg tissue | 885 +/− 22 nanomol/mg tissue | 9% | 7% | 43 +/− 8 nanomol/mg tissue | 596 +/− 39 nanomol/mg tissue | 867 +/− 14 nanomol/mg tissue | 3.5 +/− 0.5* μg PG/mg tissue | 3.5 +/− 0.4* μg PG/mg tissue |  |  |  |  |  |  |  |  | Proteoglycanes Increase compared to the control, anterior sclera (sclera [2]; 3 months treatment): 29%; Proteoglycanes Increase compared to the control, posterior sclera (sclera [2]; 3 months treatment): 29%
CNCCC(Oc1ccc(C(F)(F)F)cc1)c1ccccc1 (stereo not drawn) [Fluoxetine, fluoxetine] | 33 +/− 11 nanomol/mg tissue | 619 +/− 40 nanomol/mg tissue | 896 +/− 21 nanomol/mg tissue | 17% | 15% | 41 +/− 13 nanomol/mg tissue | 640 +/− 31 nanomol/mg tissue | 927 +/− 15 nanomol/mg tissue | 2.2 +/− 0.4* μg PG/mg tissue | 2.6 +/− 0.2 μg PG/mg tissue |  |  |  |  |  |  |  |  | Hydroxylysine Decr. compared to the control (sclera [1]; anterior sclera): 20%; Proteoglycanes Decrease compared to the control, anterior sclera (sclera [2]; 3 months treatment): 19%
Cn1cnc2c1c(=O)[nH]c(=O)n2C [Theobromine, 3,7-Dimethylxanthine] |  |  |  |  |  |  |  |  |  |  | 2.6 +/− 0.7 μg PG/mg tissue | 2.5 +/− 0.4 μg PG/mg tissue | 49 +/− 6 nanomol/mg tissue | 751 +/− 53* nanomol/mg tissue | 1073 +/− 78* nanomol/mg tissue | 49 +/− 4* nanomol/mg tissue | 741 +/− 18* nanomol/mg tissue | 1029 +/− 45* nanomol/mg tissue | Effect on [3H ryanodine binding in % compared to control (skeletal RyR): 124%; Bound [3H]ryanodine % of control (skeletal RyR): 160 ± 22 % of control; Bound [3H]ryanodine pmol/mg protein (skeletal RyR): 2.70 ± 0.37 pmol/mg protein; Bound [3H]ryanodine, % of control, +1 mmol/l AMPPCP (skeletal RyR): 160 ± 22 % of control; Bound [3H]ryanodine, % of control, +3 mmol/l AMP (skeletal RyR): 136 ± 8 % of control; content of all collagen specific amino acids, except hydroxylysine in anterior sclera (in words) (sclera [1]; all sclera samples, Example 4, versus control): Significant higher content; Hydroxylysine Inc. (sclera [1]; [4]): 20%; Hydroxyproline Inc. (sclera [1]; [4]): 19%; Proline Inc. (sclera [1]; [4]): 20%; Proteoglycanes Decrease, anterior sclera (sclera [2]; 10 weeks treatment (Example 4)): 10%; Proteoglycanes Decrease, posterior sclera (sclera [2]; 10 weeks treatment (Example 4)): 14%; content of proteoglycans in posterior sclera (in words) (sclera [2]): decrease; Effect on proteoglycan content of posterior sclera in % compared to control (sclera [2]): 86%
NCCC[C@H](N)C(=O)O [L-ornithine] |  |  |  |  |  |  |  |  |  |  | 3.0 +/− 1.1 μg PG/mg tissue | 3.0 +/− 0.9 μg PG/mg tissue | 37 +/− 4 nanomol/mg tissue | 605 +/− 37 nanomol/mg tissue | 875 +/− 48 nanomol/mg tissue | 38 +/− 5 nanomol/mg tissue | 611 +/− 24 nanomol/mg tissue | 871 +/− 35 nanomol/mg tissue | Hydroxylysine Decr. (sclera [1]; [4]): 7%
CC(=O)Nc1nnc(S(N)(=O)=O)s1 [Acetazolamide, acetazolamide] |  |  |  |  |  |  |  |  |  |  | 2.9 +/− 0.4 μg PG/mg tissue | 2.8 +/− 0.8 μg PG/mg tissue | 41 +/− 4 nanomol/mg tissue | 596 +/− 27* nanomol/mg tissue | 843 +/− 47* nanomol/mg tissue | 38 +/− 6 nanomol/mg tissue | 563 +/− 91 nanomol/mg tissue | 781 +/− 125 nanomol/mg tissue | content of hydroxyproline and proline in anterior sclera (in words) (sclera [1]; Example 4, versus control, significantly): reduced; Hydroxylysine Decr. (sclera [1]; [4]): 7%; Hydroxyproline Decr. (sclera [1]; [4]): 10%; Proline Decr. (sclera [1]; [4]): 10%
Cn1cnc2[nH]c(=O)[nH]c(=O)c21 [7-Methylxanthine] |  |  |  |  |  |  |  |  |  |  | 2.5 +/− 0.5 μg PG/mg tissue | 3.3 +/− 0.3 μg PG/mg tissue | 45 +/− 3 nanomol/mg tissue | 667 +/− 73 nanomol/mg tissue | 951 +/− 111 nanomol/mg tissue | 44 +/− 7 nanomol/mg tissue | 719 +/− 81* nanomol/mg tissue | 1018 +/− 108* nanomol/mg tissue | Effect on [3H ryanodine binding in % compared to control (skeletal RyR): 204%; Bound [3H]ryanodine % of control (skeletal RyR): 225 ± 11 % of control; Bound [3H]ryanodine pmol/mg protein (skeletal RyR): 3.80 ± 0.19 pmol/mg protein; Bound [3H]ryanodine, % of control, +1 mmol/l AMPPCP (skeletal RyR): 225 ± 11 % of control; Bound [3H]ryanodine, % of control, +3 mmol/l AMP (skeletal RyR): 214 ± 15 % of control; content of hydroxyproline and proline in posterior sclera (in words) (sclera [1]; Example 4, versus control): significantly higher content; Hydroxylysine Inc. (sclera [1]; [4]): 7%; Hydroxyproline Inc. (sclera [1]; [4]): 16%; Proline Inc. (sclera [1]; [4]): 10%; Proteoglycanes Decrease, anterior sclera (sclera [2]; 10 weeks treatment (Example 4)): 14%; Proteoglycanes Increase, posterior sclera (sclera [2]; 10 weeks treatment (Example 4)): 14%; content of proteoglycans in posterior sclera (in words) (sclera [2]): near significant increase; Effect on proteoglycan content of posterior sclera in % compared to control (sclera [2]): 114%
